Measured values published in patent publication US20080234355A1, “DNA METHYL TRANSFERASE INHIBITORS CONTAINING A ZINC BINDING MOIETY” (priority 2006, published 2008).

Key:
HDAC = HDAC fluorimetric assay kit (AK-500, Biomol), HeLa nuclear extract; assay type: biochemical; conditions: Fluor de Lys substrate, 1 hour reaction, read-out: HDAC IC50 (grade)
Experimental: (a) An In Vitro Assay which Determines the Ability of a Test Compound to Inhibit HDAC Enzymatic Activity.
HDAC inhibitors were screened using an HDAC fluorimetric assay kit (AK-500, Biomol, Plymouth Meeting, Pa.). Test compounds were dissolved in dimethylsulphoxide (DMSO) to give a 20 mM working stock concentration. Fluorescence was measured on a WALLAC Victor 2 plate reader and reported as relative fluorescence units (RFU). Data were plotted using GraphPad Prism (v4.0a) and IC50's calculated using a sigmoidal dose response curve fitting algorithm.
Each assay was setup as follows: Defrosted all kit components and kept on ice until use. Diluted HeLa nuclear extract 1:29 in Assay Buffer (50 mM Tris/Cl, pH 8.0, 137 mM NaCl, 2.7 mM KCl, 1 mM MgCl2). Prepared dilutions of Trichostatin A (TSA, positive control) and tested compounds in assay buffer (5× of final concentration). Diluted Fluor de Lys™ Substrate in assay buffer to 100 uM (50 fold=2× final). Diluted Fluor de Lys™ developer concentrate 20-fold (e.g. 50 μl plus 950 μl Assay Buffer) in cold assay buffer. Second, diluted the 0.2 mM Trichostatin A 100-fold in the 1× Developer (e.g. 10 μl in 1 ml; final Trichostatin A concentration in the 1× Developer=2 μM; final concentration after addition to HDAC/Substrate reaction=1 μM). Added Assay buffer, diluted trichostatin A or test inhibitor to appropriate wells of the microtiter plate. Added diluted HeLa extract or other HDAC sample to all wells except for negative controls. Allowed diluted Fluor de Lys™ Substrate and the samples in the microtiter plate to equilibrate to assay temperature (e.g. 25 or 37° C. Initiated HDAC reactions by adding diluted substrate (25 μl) to each well and mixing thoroughly. Allowed HDAC reactions to proceed for 1 hour and then stopped them by addition of Fluor de Lys™ Developer (50 μl). Incubated plate at room temperature (25° C.) for 10-15 min. Read samples in a microtiter-plate reading fluorimeter capable of excitation at a wavelength in the range 350-380 nm and detection of emitted light in the range 440-460 nm.

[1] = tested on: gelatinase A (MMP2; Type IV collagenase); conditions: 3T3 cells; cited from earlier work
[2] = tested on: ER mRNA expression in human ER-negative breast cancer cell lines; conditions: cited from earlier work

Row | Structure (SMILES) | IC50 (HDAC) [µM] | further results
1 | Nc1ccc(C(=O)NCCNC(=O)CCCCC(=O)NO)cc1 [Compound 30] | 1 to 10 | 
2 | CC(/C=C/C(=O)NO)=C\[C@@H](C)C(=O)c1ccc(N(C)C)cc1 [TSA, trichostatin A] |  | mRNA as well as zymographic activity of gelatinase A (MMP2) [1]: decreases; increase in ER mRNA expression [2]: 5 fold
3 | Nc1ccc(C(=O)NCCNCCC(=O)NO)cc1 [Compound 25] | > 10 | 

More lines, main results first:

Row | IC50 (HDAC) [µM] | Structure (SMILES) | further results
4 | > 10 | CCN(CCNC(=O)c1ccc(N)cc1)C(=O)CCC(=O)NO [Compound 34, N^1-(2-(4-aminobenzamido)ethyl)-N^1-ethyl-N^4-hydroxysuccinamide] | 
5 | 0.1 to 1 | Nc1ccc(C(=O)NCCNC(=O)CCCC(=O)NO)cc1 [Compound 29, N-hydroxy-4-(2-(4-aminobenzamido)-ethylcarbamoyl)butanamide] | melting point: 158.9 to 159.8 °C
6 | > 10 | Nc1ccc(C(=O)NCCNCCC(=O)CCC(=O)NO)cc1 [Compound 28] | 
7 | 1 to 10 | CCN(CCNC(=O)c1ccc(N)cc1)C(=O)CCCCC(=O)NO [Compound 36, N^1-(2-(4-aminobenzamido)ethyl)-N^1-ethyl-N^6-hydroxyadipamide] | 
